1 compound from US10167258B2, “Inhibitors of mitochondrial pyruvate dehydrogenase kinase isoforms 1-4 and uses thereof” (The Board of Regents of the University of Texas System, priority 2013, dated 2019) can be followed below.

Structures are written as SMILES. Like-named read-outs stand apart in the source and are kept apart here.

The nature of data set [1]: Half-life in vitro in hepatic S9 fractions. As to conditions: data not shown. Format: in vitro ADME.
The next data set concerns the target PDK4 (Homo sapiens, UniProt Q16654). As to the kind of experiment: Assay for inhibition of PDK activity, PDK4. It counts as biochemical. The arrangement: made in house. The method, then:
(§1) Recombinant human PDK2 was expressed and purified as a N terminal His6-tagged SUMO fusion protein with a tobacco-etch-virus protease (TEV) cleavage site in front of the N-terminal PDK2 sequence (26), and was used directly for the activity assay and binding affinity analyses. […] The purified protein was concentrated to 35-40 mg/ml and stored at −80° C. in small aliquots. Recombinant human PDK1, PDK3 and PDK4 were expressed and purified as described previously (26).
(§2) The remaining steps were described previously (26). IC50 values were obtained by the curve fitting of inhibition isotherms using Prism 6 (GraphPad software, Inc.).

The nature of data set [2]: Pharmacokinetic studies in mice after IP dosing. It counts as in vivo. Conditions: 70 mg/kg IP, male C57BL/6J mice, plasma. On the procedure: Twenty-one male C57BL/6J mice were dosed IP with 70 mg/kg PS-10, 0.2 ml/mouse formulated as 10% DMSO/20% water/70% of 25% (2-hydroxypropyl)-β-cyclodextrin for determination of PS-10 PK. Twenty-one female CD-1 mice were dosed IP with 20 mg/kg PS-8, 0.2 ml/mouse formulated as 5% ethanol and 95% of 0.1 M sodium bicarbonate pH 9.0 for determination of PS-8 PK. Animal (n=3) were sacrificed and whole blood was harvested for each time point. Plasma was processed from whole blood by centrifugation of the ACD treated blood for 10′ at 10,000 rpm in a standard centrifuge. The analytical processing of blood samples and pharmacokinetics studies using LC/MS/MS were as described previously with LC/MS/MS methods optimized for detection of PS-10 and PS-8 (33).

Data set [3] concerns the target T1, PDK2 (Homo sapiens, UniProt Q15119). As to the kind of experiment: Isothermal titration calorimetry (ITC), binding to PDK2. The arrangement: made in house. Conditions: ITC; read-out: Kd, nM for PDK2. The method, then: as §1
The PDK2 or Hsp90 N-terminal domain protein was dialyzed against one liter of the dialysis buffer containing 50 mM Tris-Cl, pH 7.5, 50 mM KCl, 1 mM MgCl2, and 0.5 mM β-mercaptoethanol. […] All of the ITC data were initially analyzed by the NITPIC program (32) to construct the baseline, followed by curve-fitting in Origin 7 to obtain binding parameters.
For orientation: In ITC the heat of successive injections is recorded.

The next data set deals with DIO mice. Description: Blood biochemistry of DIO mice (lactate, cholesterol, triglycerides). It counts as in vivo. As to conditions: 70 mg/kg/day. On the procedure:
(§3) Six- to eight-week old C57BL/6J male mice were obtained from the local campus breeding colony at UT Southwestern Medical Center (Dallas, Tex.) and randomized into two groups: vehicle- and PS10-treated. Prior to the treatment, mice were fed with a 60% high-fat diet, which contained 32% saturated and 68% unsaturated fat (catalog number: D12492, Research Diet Inc. New Brunswick, N.J.), for eight to ten weeks to produce DIO animals. PS-10 was dissolved in 100% DMSO and then diluted to make a 10% DMSO aqueous solution containing 17.5% (w/v) (2-hydroxypropyl)-β-cyclodextrin for delivery. Animals were dosed at mid-day by intraperitoneal (IP) injections at 70 mg/kg using 1-ml syringe and 30-gauge needle. The length of the treatment is indicted in each experiment. At 10 h after the last injection, animals were euthanized using carbon dioxide asphyxiation followed by cervical dislocation and dissection. Blood was harvested by cardiac puncture and stored on ice. Acidified citrate dextrose (ACD) was used as an anticoagulant. Immediately after blood collection, heart, liver, kidneys and both hind-leg quadriceps muscles were removed and snap frozen in liquid nitrogen. Average ischemia time before organ harvest was about 2 to 3 min. Blood was centrifuged in an Eppendorf 5415R refrigerated microcentrifuge at 9,300×g for 5 min to isolate plasma, which was subsequently stored at −80° C.
Glucose levels were determined with Sigma Diagnostics Glucose (Sigma Aldrich, St. Louis, Mo.). The levels of lactate, cholesterol, and triglyceride were measured by Vitros 250 blood chemistry analyzer (Johnson & Johnson Inc.) in the Metabolic Phenotyping Core in UT Southwestern Medical Center.

For data set [4], the target named is T1, PDK2. Description: Assay for inhibition of PDK activity, PDK2. It counts as biochemical. The arrangement: made in house. The method, then: as §1, §2
Another data set has as its system mature SREBP-1c. As to the kind of experiment: Hepatic nuclear mature SREBP-1c protein level in PDK inhibitor-treated DIO mice. Format: in vivo. As to conditions: 40 mg/kg/day by mini-pumps for 5 days.
A further data set deals with PDC. Description: Assay for PDC activity in tissues of treated DIO mice. It counts as in vivo. As to conditions: single dose 70 mg/kg IP, 10 h. The method, then:
as §3
Liquid nitrogen-stored tissue samples were removed and thawed on ice. Individual kidneys (200-250 mg), hearts (200-300 mg), muscle (200-300 mg) and liver (250-400 mg) tissues samples were manually homogenized in an ice-chilled glass homogenizer containing 1 ml of the homogenization buffer. The homogenization buffer contained 30 mM KPi, pH 7.5, 3 mM EDTA, 5 mM DTT, 1 mM benzamidine, 3% fetal bovine serum, 5% Triton X-100 and 1 mM leupeptin. Samples were transferred to ice-cold 10 ml polycarbonate tubes and spun in an ultracentrifuge at 25,000×g for 10 min to pellet cell and tissue debris. Supernatants were removed and stored on ice until diluted (1:3 for muscle, 1:5 for liver and 1:20 for kidneys and heart tissues) with a dilution buffer containing 50 mM HEPES, pH 7.5, 1.0 mM DTT, 0.1% Triton X-100, 5 mM DCA, 50 mM NaF, 3% fetal bovine serum and 1 mM leupeptin. The diluted samples (50 μl) were placed in each well of a 24-well plate containing 310 μl of the reaction mixture. A micro-bridge (Hampton Research) was pre-set into each well holding one piece of filter wick pre-soaked with 2 M NaOH. […] Assay plates were incubated further at 37° C. for 45 min. ^14CO2-trapped on 2 M NaOH soaked filter wicks were counted in a liquid scintillation counter. Total protein concentrations in the samples were determined by using BCA protein assay kit (Thermo fisher Scientific, Rockford, Ill.).

Chain of PDK4 (Q16654 whole entry, the tested form may be a part): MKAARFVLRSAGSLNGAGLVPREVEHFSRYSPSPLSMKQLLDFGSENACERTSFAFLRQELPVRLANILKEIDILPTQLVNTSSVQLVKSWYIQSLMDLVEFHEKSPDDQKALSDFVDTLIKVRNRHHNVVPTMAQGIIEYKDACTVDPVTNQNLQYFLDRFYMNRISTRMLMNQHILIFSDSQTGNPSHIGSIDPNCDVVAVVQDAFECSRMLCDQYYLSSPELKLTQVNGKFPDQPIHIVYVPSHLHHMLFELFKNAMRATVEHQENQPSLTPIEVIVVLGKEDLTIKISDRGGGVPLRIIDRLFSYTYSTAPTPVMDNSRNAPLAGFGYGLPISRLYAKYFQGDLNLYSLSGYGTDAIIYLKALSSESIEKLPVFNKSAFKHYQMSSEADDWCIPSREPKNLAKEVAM

Broadly, the IC50 is the concentration at which inhibition is half-maximal. What is called CL/F is clearance divided by bioavailability, as obtained after extravascular dosing. The term AUC(0-t) denotes exposure summed from dosing to a finite time, without extrapolation to infinity. Low readings indicate less exposure, high ones more exposure. For orientation: Cmax means the peak of the concentration-time curve. One may read the Tmax as the time from dosing to the highest level. What is called Kd is the concentration at which binding is half-saturated. `O=S(=O)(c1ccc(O)cc1O)N1Cc2cc(O)cc(O)c2C1` [PS10, 2-((2,4-dihydroxyphenyl)sulfonyl)isoindoline-4,6-diol] showed a half-life in data set [1] of more than 4 h. Besides, the IC50 on PDK4 (Table 1, inhibitor 31.6 nM to 1 mM, read-out: IC50, μM for PDK4) was determined as 0.76 µM. For the same compound, the half-inhibitory concentration (IC50) on PDK4 (absence of E2/E3BP core (−), read-out: IC50 for PDK4) worked out at 0.77 µM. The compound also came in with a CL/F in data set [2] of 0.741 mL/min. Moreover, in data set [2] (mouse), the exposure AUC(0-t) was 31800 ng·h/mL, the Cmax worked out at 32400 ng/mL and the Tmax is 0.167 h. Besides, in data set [2] (mouse, read-out: Terminal T1/2), the half-life came out at 2.68 h. For the same compound, the Vd/F in data set [2] (mouse, read-out: Vz/F) is 0.172 L. The equilibrium dissociation constant (Kd) at PDK2 [3] turned out to be 239 nM. In addition, in the data set with DIO mice, the “plasma cholesterol vs vehicle-treated” value is “significantly lower”, the “plasma lactate vs vehicle-treated” value was “significantly lower” and the “plasma triglycerides vs vehicle-treated” value was “significantly lower”. Moreover, the IC50 at PDK2 [4] (Table 1, inhibitor 31.6 nM to 1 mM, read-out: IC50, μM for PDK2) came to 0.8 µM. Besides, the half-maximal inhibitory concentration (IC50) on PDK2 [4] (absence of E2/E3BP core (−), read-out: IC50 for PDK2) stood at 0.8 µM. The “protein level of nuclear mature SREBP-1c” value in the data set on mature SREBP-1c is given as “unchanged”. In addition, in the data set with PDC, the “PDC activity in heart, fold over vehicle-treated” value worked out at 11 fold; the “PDC activity in kidneys, fold enhancement over vehicle-treated” value was 1.4 fold; the “PDC activity in liver, fold over vehicle-treated” value is 23 fold; the “PDC activity in quadriceps muscle vs vehicle-treated” value is on record as “no difference”.
